# According to article PMC6093650, “Antidepressive and anxiolytic effects of ostruthin, a TREK-1 channel activator” (PLoS ONE, 2018):
# Legend:
# [1] = tested on: mice anxiety-like behavior; assay: open-field test; assay type: in vivo; settings: n = 12
# Source text: (§1) Male ICR mice (n = 317 in total) aged 5 weeks and weighing 32 ± 2 g were purchased from Shimizu Laboratory Supplies (Kyoto, Japan). For the social defeat stress test, we used 28 C57BL/6J mice (5 weeks old, Shimizu Laboratory Supplies) and 30 ICR mice (7–8 weeks old, Charles River Labs Japan, Yokohama, Kanagawa, Japan). Mice were maintained for at least 1 week prior to experiments. Animals were kept in groups in plastic cages. They had free access to food and water, and were kept in a 12-h light/dark cycle (08:00–20:00). Experiments were carried out between 10:00 and 18:00 in a quiet and air-conditioned experimental room, in which mice were habituated for at least 30 min before each experiment. Animal experiments were performed in accordance with the guidelines of the Physiological Society of Japan and were approved by the Committees on Animal Experiments at Kansai Medical University and the Kurashiki University of Science and the Arts. Ostruthin was initially dissolved in DMSO at higher concentration (100 mM) and then diluted in phosphate-buffered saline (PBS). The diluted solution was mixed vigorously for more than 10 min before the experiments, and an equal volume of DMSO was added to PBS as a control. PBS and ostruthin were administered intraperitoneally 30 min before mice behavioral tests (0.01 ml/g body weight). Each animal was used only once, except for the wheel running test, which was carried out immediately after elevated plus maze.
# The open-field test was performed in accordance with a previous report with minor modifications. The open-field consisted of a square (90 × 90 cm), in which the floor was divided into 16 equal squares. After a mouse was placed in a corner of the open field facing the wall, the number of the entries into the central squares, and whole line crossings were counted for 5 min. After removal of animal, the apparatus was cleaned and wiped.
# [2] = tested on: depression-like behavior of mice; assay: social defeat stress test; assay type: in vivo; settings: C57BL/6J mice after 9 days of defeat, p = 0.440, n = 14
# Source text: as §1, with “[…] Time spent in the target zone” for “PBS and ostruthin were administered intraperitoneally 30 min before mice behavioral tests (0.01 ml/g body weight). Each animal”, “measured firstly with the empty mesh enclosure” for “used only once, except”, “150 sec. […]” for “the wheel running test, which was carried out immediately after elevated plus maze.”
smiles,measurement,setting,value
CC(C)=CCC/C(C)=C/Cc1cc2ccc(=O)oc2cc1O [ostruthin],number of entries to the central area,"[1]; 20 mg/kg i.p. 30 min before test, vs 5 mg/kg",significantly decreased
same,total line crossings,"[1]; 20 mg/kg i.p., vs 5 mg/kg",decrease
same,number of entries to the central area,"[1]; 2 and 5 mg/kg i.p. 30 min before test, vs 0 mg/kg, 5 min",significantly increased
same,total line crossings,"[1]; 2 and 5 mg/kg i.p. 30 min before test, vs 0 mg/kg",increased
same,time difference in the interaction area (target zone),[2],increased the time difference in the interaction area non-significantly
